Measurements as given in publication PMC8802806, “Synthesis and Antitumor Activity of Erlotinib Derivatives Linked With 1,2,3-Triazole” (Frontiers in Pharmacology, 2022).
Read-outs that look alike come from different tables or passages of the source.

Legend:
HeLa cells = assay: Cell antiproliferative activity assay (CCK8); assay type: cell-based, human; settings: for inhibition at 0.25 µM: 250 nM; for inhibition at 0.5 µM: 500 nM; for inhibition at 1 µM: 1000 nM; for inhibition at 2 µM: 2000 nM; for inhibition at 4 µM: 4000 nM; for inhibition at 8 µM: 8000 nM; for inhibition at 16 µM: 16000 nM
Procedure: Cell antiproliferative activity was evaluated by the Cell Counting Kit-8 (CCK8, DOJINDO, Japan) assay. The cells were seeded at a density of 2,000 cells per well into 96-well microplate in 100 μl of growth medium. Cells were incubated at 37°C and 5% CO2 overnight. The next day, 100 μl per well of diluted inhibitor in growth medium was added with the final concentration from 0.1 nM to 100 μM. The cells were treated with DMSO as control. A series of dilutions are made in 0.1% DMSO in assay medium so that the final concentration of DMSO is 0.1% in all of treatments. Cells were incubated at 37°C and 5% CO2 for 48 h. Then, 10 μl of CCK8 was added to each well. The plates were incubated at 37°C for 2 h; after that, the plates were recorded by measuring absorbance at 450 nm with the reference wavelength of 630 nm using an EnVision Multilabel Reader (PerkinElmer). The IC50 values were calculated using GraphPad Prism 6.0 software and determined by the concentration causing a half-maximal percent activity. All assays were conducted with three parallel samples and three repetitions.

[1] = Homo sapiens, HeLa, 48 h, HeLa cells, CCK8, 48 h, mean ± SD, n = 3, read-out: IC50 (μM) HeLa
[2] = Homo sapiens, HELA 2000cells/well, Repeat1, read-out: Inhibition (%) Repeat1
[3] = Homo sapiens, HELA 2000cells/well, Repeat2, read-out: Inhibition (%) Repeat2
[4] = Homo sapiens, HeLa, HELA 2000cells/well, supplement DataSheet2, Repeat1, read-out: IC50 Repeat1
[5] = Homo sapiens, HeLa, HELA 2000cells/well, supplement DataSheet2, Repeat 2, read-out: IC50 Repeat 2
[6] = Homo sapiens, HeLa, HELA 2000cells/well, supplement DataSheet2, mean of two repeats ± SD, read-out: IC50 mean±SD

Structure (SMILES)	IC50 (HeLa cells; [1])	melting point	IC50 (HeLa cells; [4])	IC50 (HeLa cells; [5])	IC50 (HeLa cells; [6])	inhibition at 0.25 µM (HeLa cells; [2])	inhibition at 0.25 µM (HeLa cells; [3])	inhibition at 0.5 µM (HeLa cells; [2])	inhibition at 0.5 µM (HeLa cells; [3])	inhibition at 1 µM (HeLa cells; [2])	inhibition at 1 µM (HeLa cells; [3])	inhibition at 2 µM (HeLa cells; [2])	inhibition at 2 µM (HeLa cells; [3])	inhibition at 4 µM (HeLa cells; [2])	inhibition at 4 µM (HeLa cells; [3])	inhibition at 8 µM (HeLa cells; [2])	inhibition at 8 µM (HeLa cells; [3])	inhibition at 16 µM (HeLa cells; [2])	inhibition at 16 µM (HeLa cells; [3])	also measured
COCCOc1cc2ncnc(Nc3cccc(-c4cn(Cc5ccccc5I)nn4)c3)c2cc1OCCOC [Compound 4b, [6,7-Bis-(2-methoxy-ethoxy)-quinazolin-4-yl]-{3-[1-(2-iodo-benzyl)-1H-[1,2,3]triazol-4-yl]-phenyl}-amine]	11.5 ± 1.69 µM	93 to 96 °C	9.72 µM	13.1 µM	11.5 ± 1.69 µM	8.56%	0%	12.5%	0%	13.3%	3.42%	17.6%	7.96%	37.8%	28.2%	52%	40.8%	54.8%	51.1%	–
COCCOc1cc2ncnc(Nc3cccc(-c4cn(Cc5ccccc5Br)nn4)c3)c2cc1OCCOC [Compound 4c, [6,7-Bis-(2-methoxy-ethoxy)-quinazolin-4-yl]-{3-[1-(2-bromo-benzyl)-1H-[1,2,3]triazol-4-yl]-phenyl}-amine]	21.3 ± 7.79 µM	94 to 97 °C	14.8 µM	30.4 µM	–	2.33%	0%	4.15%	1.82%	4.75%	2.33%	15.8%	9.94%	35.6%	21.3%	42.4%	29.7%	45%	34.1%	–
COCCOc1cc2ncnc(Nc3cccc(-c4cn(-c5cccc(OC)c5)nn4)c3)c2cc1OCCOC [Compound 4e, [6,7-Bis-(2-methoxy-ethoxy)-quinazolin-4-yl]-{3-[1-(3-methoxy-phenyl)-1H-[1,2,3]triazol-4-yl]-phenyl}-amine]	> 50 µM	–	–	–	–	0.801%	0%	4.97%	2.08%	7.13%	3.04%	14.1%	5.45%	15%	13.5%	16.5%	15.1%	18.2%	15.9%	–
COCCOc1cc2ncnc(Nc3cccc(-c4cn(-c5ccccc5Br)nn4)c3)c2cc1OCCOC [Compound 4i, [6,7-Bis-(2-methoxy-ethoxy)-quinazolin-4-yl]-{3-[1-(2-bromo-phenyl)-1H-[1,2,3]triazol-4-yl]-phenyl}-amine]	4.16 µM	93 to 97 °C	4.41 µM	4.3 µM	4.36 ± 0.054 µM	2.62%	0%	6.42%	5.74%	9.04%	6.59%	15.2%	17.7%	41.6%	42.6%	83.4%	83.9%	88.1%	88.9%	IC50 (HeLa cells; HeLa cells, CCK8, 48 h, mean ± SD, n = 3, read-out: IC50 (μM) HeLa): 4.36 ± 0.15 µM
COCCOc1cc2ncnc(Nc3cccc(-c4cn(-c5ccc(Br)cc5)nn4)c3)c2cc1OCCOC [Compound 4j, [6,7-Bis-(2-methoxy-ethoxy)-quinazolin-4-yl]-{3-[1-(4-bromo-phenyl)-1H-[1,2,3]triazol-4-yl]-phenyl}-amine]	12.2 ± 1 µM	105 to 108 °C	11.3 µM	13.3 µM	12.2 ± 1.01 µM	0%	2.88%	0.0873%	2.97%	0.96%	4.36%	4.01%	4.89%	8.03%	8.64%	26.2%	17.7%	73.6%	63.3%	–
C#Cc1cccc(Nc2ncnc3cc(OCCOC)c(OCCOC)cc23)c1 [Erlotinib, erlotinib]	–	–	–	–	–	–	–	–	–	–	–	–	–	–	–	–	–	–	–	IC50 (HeLa cells; Homo sapiens, HeLa cells, CCK8, 48 h, mean ± SD, n = 3, read-out: IC50 (μM) HeLa): 39.5 ± 3.34 µM

Second part, led by results:

IC50 (HeLa cells; [1])	melting point	IC50 (HeLa cells; [4])	IC50 (HeLa cells; [5])	IC50 (HeLa cells; [6])	Structure (SMILES)	inhibition at 0.25 µM (HeLa cells; [2])	inhibition at 0.25 µM (HeLa cells; [3])	inhibition at 0.5 µM (HeLa cells; [2])	inhibition at 0.5 µM (HeLa cells; [3])	inhibition at 1 µM (HeLa cells; [2])	inhibition at 1 µM (HeLa cells; [3])	inhibition at 2 µM (HeLa cells; [2])	inhibition at 2 µM (HeLa cells; [3])	inhibition at 4 µM (HeLa cells; [2])	inhibition at 4 µM (HeLa cells; [3])	inhibition at 8 µM (HeLa cells; [2])	inhibition at 8 µM (HeLa cells; [3])	inhibition at 16 µM (HeLa cells; [2])	inhibition at 16 µM (HeLa cells; [3])	also measured
> 50 µM	89 to 92 °C	–	–	–	COCCOc1cc2ncnc(Nc3cccc(-c4cn(Cc5ccccc5)nn4)c3)c2cc1OCCOC [Compound 4a, [3-(1-Benzyl-1H-[1,2,3]triazol-4-yl)-phenyl]-[6,7-bis-(2-methoxy-ethoxy)-quinazolin-4-yl]-amine]	0%	4.4%	8.2%	5.61%	8.54%	6.73%	8.54%	6.73%	12.1%	12.1%	12.5%	13.8%	16.3%	15.5%	–
30.7 ± 1.83 µM	83 to 86 °C	32.4 µM	28.7 µM	30.7 ± 1.83 µM	COCCOc1cc2ncnc(Nc3cccc(-c4cn(-c5ccccc5F)nn4)c3)c2cc1OCCOC [Compound 4f, [6,7-Bis-(2-methoxy-ethoxy)-quinazolin-4-yl]-{3-[1-(2-fluoro-phenyl)-1H-[1,2,3]triazol-4-yl]-phenyl}-amine]	2.17%	0%	2.51%	0.418%	3.51%	0.502%	4.77%	2.17%	8.86%	3.18%	29.8%	23.1%	31.1%	30.4%	–
9.05 ± 0.53 µM	88 to 91 °C	8.57 µM	9.64 µM	9.06 ± 0.531 µM	COCCOc1cc2ncnc(Nc3cccc(-c4cn(-c5ccc(F)cc5)nn4)c3)c2cc1OCCOC [Compound 4g, [6,7-Bis-(2-methoxy-ethoxy)-quinazolin-4-yl]-{3-[1-(4-fluoro-phenyl)-1H-[1,2,3]triazol-4-yl]-phenyl}-amine]	0%	2.88%	0.279%	5.02%	2.88%	5.02%	20.6%	17.7%	37.5%	38.5%	51.1%	50.1%	59.4%	54.7%	–
8.85 ± 0.56 µM	131 to 134 °C	8.32 µM	9.44 µM	8.86 ± 0.559 µM	COCCOc1cc2ncnc(Nc3cccc(-c4cn(-c5ccccc5Cl)nn4)c3)c2cc1OCCOC [Compound 4h, [6,7-Bis-(2-methoxy-ethoxy)-quinazolin-4-yl]-{3-[1-(2-chloro-phenyl)-1H-[1,2,3]triazol-4-yl]-phenyl}-amine]	0%	1.75%	7.08%	3.15%	7.26%	6.12%	13.4%	11.2%	31.3%	29.2%	54.3%	51.4%	63.2%	59.4%	–
